Reference: US20040092552A1, “2-Fluorobenzenesulfonyl compounds for the treatment of inflammation” (priority 2003, published 2004)
Structures can show the parent of a compound that is named as a salt.

Compound	melting point [°C]
CS(=O)(=O)c1ccc(-c2cc(C(F)F)nn2-c2ccc(F)cc2)cc1F (as salt: trifluoroacetate) [Example 18, 3-(Difluoromethyl)-5-[3-fluoro-4-(methylsulfonyl)phenyl]-1-(4-fluorophenyl)-1H-pyrazole]	201 to 202
CS(=O)(=O)c1ccc(-c2cc(C(F)F)nn2C2CCCCC2)cc1F (as salt: trifluoroacetate) [Example 19, 1-Cyclohexyl-3-(difluoromethyl)-5-[3-fluoro-4-(methylsulfonyl)phenyl]-1H-pyrazole]	138 to 139
Cc1ccc(-n2nc(C(F)F)cc2-c2ccc(S(C)(=O)=O)c(F)c2)cc1Cl (as salt: trifluoroacetate) [Example 20, 1-(3-Chloro-4-methylphenyl)-3-(difluoromethyl)-5-[3-fluoro-4-(methylsulfonyl)phenyl]-1H-pyrazole]	146 to 147
CS(=O)(=O)c1ccc(-c2cc(C(F)F)nn2-c2cccc(C(F)(F)F)c2)cc1F (as salt: trifluoroacetate) [Example 21, 3-(Difluoromethyl)-5-[3-fluoro-4-(methylsulfonyl)-phenyl]-1-[3-(trifluoromethyl)-phenyl]-1H-pyrazole]	110 to 111
NS(=O)(=O)c1ccc(-c2cscc2-c2ccccc2)cc1F [Example 1, 2-Fluoro-4-(4-phenyl-3-thienyl)benzenesulfonamide]	170.9 to 171
CS(=O)(=O)c1ccc(-c2cscc2-c2ccccc2)cc1F [Example 2, 3-[3-Fluoro-4-(methylsulfonyl)phenyl]-4-phenylthiophene]	140 to 141
Cc1ccc(-c2cc(C(F)F)nn2-c2ccc(S(N)(=O)=O)c(F)c2)cc1Cl [Example 3, 4-[5-(3-chloro-4-methylphenyl)-3-(difluoromethyl)-1H-pyrazol-1-yl]-2-fluorobenzenesulfonamide]	160 to 161
COc1ccc(-c2cc(C(F)F)nn2-c2ccc(S(N)(=O)=O)c(F)c2)cc1F [Example 10, 4-[3-(Difluoromethyl)-5-(3-fluoro-4-methoxyphenyl)-1H-pyrazol-1-yl]-2-fluorobenzenesulfonamide]	167 to 169
CS(=O)(=O)c1ccc(-c2cc(C(F)(F)F)nn2C2CCCCC2)cc1F [Example 12, 1-Cyclohexyl-5-[3-fluoro-4-(methylsulfonyl)phenyl]-3-(trifluoromethyl)-1H-pyrazole]	228 to 229
CS(=O)(=O)c1ccc(-c2cc(C(F)(F)F)nn2-c2ccc(OC(F)(F)F)cc2)cc1F [Example 14, 5-[3-Fluoro-4-(methylsulfonyl)phenyl]-3-(trifluoromethyl)-1-[4-(trifluoromethoxy)phenyl]-1H-pyrazole]	110 to 112
Cc1cccc(-n2nc(C(F)(F)F)cc2-c2ccc(S(C)(=O)=O)c(F)c2)c1 [Example 17, 5-[3-Fluoro-4-(methylsulfonyl)phenyl]-1-(3-methylphenyl)-3-(trifluoromethyl)-1H-pyrazole]	129 to 130
Cc1onc(-c2ccc(F)cc2)c1-c1ccc(S(N)(=O)=O)c(F)c1 [Example 22, 2-Fluoro-4-[3-(4-fluorophenyl)-5-methyl-4-isoxazolyl]benzenesulfonamide]	176 to 177
CS(=O)(=O)c1ccc(C2=C(c3ccccc3)C(=O)OC2)cc1F [Example 24, 4-[3-Fluoro-4-(methylsulfonyl)phenyl]-3-phenyl-2(5H)-furanone]	161 to 162

Other lines, results leading:

melting point [°C]	Compound
126 to 128	Cc1ccc(-c2cc(C(F)(F)F)nn2-c2ccc(S(N)(=O)=O)c(F)c2)cc1 (as salt: trifluoroacetate) [Example 4, 4-[5-(4-Methylphenyl)-3-(trifluoromethyl)-1H-pyrazol-1-yl]-2-fluorobenzenesulfonamide]
140 to 141	NS(=O)(=O)c1ccc(-n2nc(C(F)(F)F)cc2-c2ccc(Cl)cc2)cc1F (as salt: trifluoroacetate) [Example 5, 4-[5-(4-Chlorophenyl)-3-trifluoromethyl-1H-pyrazol-1-yl]-2-fluorobenizenesulfonamide]
124 to 126	COc1ccc(-c2cc(C(F)(F)F)nn2-c2ccc(S(N)(=O)=O)c(F)c2)cc1F (as salt: trifluoroacetate) [Example 6, 4-[5-(3-Fluoro-4-methoxy)-3-trifluoromethyl-1H-pyrazol-1-yl]-2 fluorobenzenesulfonamide]
127 to 130	NS(=O)(=O)c1ccc(-n2nc(C(F)(F)F)cc2-c2ccc(F)cc2)cc1F (as salt: trifluoroacetate) [Example 8, 2-Fluoro-4-[5-(4-fluorophenyl)-3-(trifluoromethyl)-1H-pyrazol-1-yl]benzenesulfonamide]
159 to 160	COc1ccccc1-c1cc(C(F)(F)F)nn1-c1ccc(S(N)(=O)=O)c(F)c1 (as salt: trifluoroacetate) [Example 9, 2-Fluoro-4-[5-(2-methoxyphenyl)-3-(trifluoromethyl)-1H-pyrazol-1-yl]benzenesulfonamide]
228 to 229	CS(=O)(=O)c1ccc(-c2cc(C(F)(F)F)nn2-c2ccc(F)cc2)cc1F [Example 11, 5-[3-Fluoro-4-(methylsulfonyl)phenyl]-1-(4-fluorophenyl)-3-(trifluoromethyl)-1H-pyrazole]
144 to 145	Cc1ccc(-n2nc(C(F)(F)F)cc2-c2ccc(S(C)(=O)=O)c(F)c2)cc1Cl [Example 15, 1-(3-Chloro-4-methylphenyl)-5-[3-fluoro-4-(methylsulfonyl)phenyl]-3-(trifluoromethyl)-1H-pyrazole]
152 to 153	CS(=O)(=O)c1ccc(-c2cc(C(F)(F)F)nn2-c2ccc(C#N)cc2)cc1F [Example 16, 4-[5-[3-Fluoro-4-(methylsulfonyl)phenyl]-3-(trifluoromethyl)-1H-pyrazol-1-yl]benzonitrile]
